How the values were obtained:
[1] = system: genes that are controlled via the PI3K-dependent pathway of the insulin receptor signaling pathway; experiment: Expression of insulin-regulated gluconeogenic and glycolytic genes in mouse liver after feeding (quantitative PCR); assay type: in vivo, C57BL/6 mice; details: food with 0.9 μmol/g compound for 3 days, 40 μg insulin i.p.
From the text: (§1) C57BL/6 mice (Charles River Laboratories) that had been kept in a pathogen-free animal facility, maintaining a 12-hour light/dark cycle, were used. The animals received standard mouse food (19% protein, 3.3% fat, 41.3% carbohydrates; ssniff Spezialdiäten GmbH) ad libitum. Male animals between the ages of 8 and 12 weeks were used.
A group of 6 C57BL/6 mice received standard mouse food mixed with 0.9 μmol/g of the compound according to formula (9) for a period of 3 days, while a control group of 6 animals received standard mouse food. The animals were then injected intraperitoneally with 100 μl normal saline solution (control group) or saline solution with 40 μg recombinant human insulin (Sigma). […]
Total RNA from 15 mg mouse liver in each case was isolated using the Absolutely RNA Kit (Stratagene) and the cDNA was produced via the reverse transcription of 2 μg RNA using the High Capacity cDNA Archive Kit (Applied Biosystems), according to the manufacturer's instructions. Quantitative PCR was performed in 10 μl batches in an iQ5-Cycler (BioRad) by means of the TaqMan Gene Expression Assay (Applied Biosystems) using primers (Applied Biosystems), against lgfbp1, Fbp2, Pck1, Pck2, G6 pc, Hk2, Pklr, Gck, Gckr, according to the manufacturer's instructions. […]

[2] = system: Akt; experiment: Insulin-stimulated phosphorylation of Akt in mouse liver after feeding (immunoblot); assay type: in vivo, C57BL/6 mice; details: food with 0.9 μmol/g compound for 3 days, 40 μg insulin i.p.
From the text: as §1
A group of 6 C57BL/6 mice received standard mouse food mixed with 0.9 μmol/g of the compound according to formula (9) for a period of 3 days, while a control group of 6 animals received standard mouse food. The animals were then injected intraperitoneally with 100 μl normal saline solution (control group) or saline solution with 40 μg recombinant human insulin (Sigma). After 10 minutes the mice were anesthetized, the livers were removed and were lysed in lysate buffer (20 mM Tris-Cl, pH 7.5, 150 mM NaCl, 1 mM EDTA, 1 mM EGTA, 2.5 mM sodium pyrophosphate, 1 mM β-glycerophosphate, 1 mM sodium vanadate, 1% Triton X-100) and protease inhibitor mix HP (Serva).
Further, standardized quantities of protein were separated out using SDS-PAGE, and this protein was identified via immunoblotting, after being transferred to nitrocellulose membranes, with an antibody, against the phosphorylated protein Akt, pAkt (Thr308) (cell signaling). Visualization and evaluation were performed as described in Example 2.

[3] = system: Drosophila melanogaster flies; experiment: Lifespan of adult Drosophila melanogaster flies fed with compound (Kaplan-Meier analysis); assay type: in vivo; details: for Average Lifespan: ±margin of error
Description: The experiments were conducted on isogenic flies (Drosophila melanogaster) of the genotype white^1118, also called white^− or w^−, and mutants (w^1118; step^k08110/step^SH0323) (strain # 10770 from the public Bloomington Stock Center, genotype: step^k08110/CyO, URL http://flybase.bio.indiana.edu/reports/FBstOO10770.html; strain # FBst0103734 from the public Szeged Stock Center, genotype: step^SH0323/CyO, URL http://flybase.bio.indiana.edu/reports/FBst0103734.html), in which the Drosophila cytohesin steppke is mutated and therefore defective.
By crossing the two steppke alleles k08110 and SH0323 eight times with whites flies, an isogenic genetic background is produced, which permits a comparison of the lifespans between the genotypes of the type white^1118 and the mutants (w^1118; step^k08110/step^SH0323). The average lifespan of the wild type was approximately 25 days, while that of the mutants (w^1118; step^k08110/step^SH0323) was approximately 30 days.
To produce the special food, 32.5 g autolysed yeast (Fluka (Catalog No. 73145)) and 10 g agar (Difco (Catalog No. 281230)) were mixed with 300 ml water (demineralized, Roth (Catalog No. 3175)) and autoclaved at 120° C. for 20 minutes. The solution was cooled to 60° C., and 32.5 g α-D(+)-glucose monohydrate (Roth (Catalog No. 6887)) were added under stirring. 15 ml 10% (w/v) p-hydroxybenzoic acid methylester (Sigma (Catalog No. H3647)) solution dissolved in 70% (v/v) ethanol (Roth (Catalog No. 9065)) and 1.35 ml dimethylsulfoxide (DMSO, Roth (Catalog No. A994)) were then added. Water was then added to this basic solution to a volume of 450 ml, which was then held at a temperature of 60° C. For the control food, 50 ml of a 0.7% (v/v) DMSO solution in water were produced. For the food containing the compounds according to formulas (9) or (25), 0.2 ml of a 25 mM solution of the compounds according to formula (9) or (25) in 100% DMSO were added to 49.8 ml of a 0.3012% DMSO solution in water.
These 50 ml of the control solutions and the solutions containing the compounds according to formula (9) or (25) were each mixed with 450 ml of the basic solution, and were placed in 4 ml amounts in polystyrene containers (height 9.5 cm, diameter 2.4 cm, sealed with cotton wadding) to maintain the flies. After 24 hours, the cooled containers were sealed with cotton wadding and stored at 4° C.
The final concentration of the food components in the control food was 6.5% (w/v) autolysed yeast, 6.5% (w/v) α-D(+)-glucose monohydrate, 2% (w/v) agar, 0.3% (w/v) p-hydroxybenzoic acid methylester, 2.1% ethanol (v/v), 0.34% (v/v) DMSO.
(§2) The final concentration of the food components in the food containing the compound according to formula (9) was 6.5% (w/v) autolysed yeast, 6.5% (w/v) α-D(+)-glucose monohydrate, 2% (w/v) agar, 0.3% (w/v) p-hydroxybenzoic acid methylester, 2.1% ethanol (v/v), 0.34% (v/v) DMSO, 10 μM compound according to formula (9).
as §2, with “(25)” for “(9)”, “(25).” for “(9).”
The larvae were maintained on standard fly food containing 1.1% (w/v) brewer's yeast (“Gewürzmühle Brecht” company), 5.43% (w/v) cornmeal, 0.53% (w/v) filamentous agar (“Gewürzmühle Brecht” company), 6.6% (v/v) sugar beet syrup (Grafschafter), 1.3% (v/v) ethanol (Roth company), 0.13% (w/v) p-hydroxybenzoic acid methylester (Sigma).
24 hours after emergence of the imagines, the adult flies, females and males were separated under a brief CO2 anesthetization lasting less than 2 minutes. During the 24 hours after emergence, the animals were fed using standard fly food. […]

COc1nc(-c2ccc3c(c2)OCO3)n(-c2ccc(NC(=O)CSc3ccccc3)cc2)n1 [Compound (9)]
expression of the glycolytic gene induced by insulin [1]: decreased to a statistically significant degree | expression of the studied gluconeogenic gene, suppressed by insulin [1]: increased | inhibition of the phosphorylation of the protein Akt stimulated by insulin [2]: approximately 40% | increase in average lifespan as compared with the untreated control animals ([3]; control animals (w^1118), 10 μM compound in food, P<0.05): 11.5% | Average Lifespan ([3]; genotype w^1118, female flies, 10 μM compound in food): 28.1 (±1.0) Days | Average Lifespan ([3]; genotype w^1118, step^k08110/step^SH0323 mutants, female flies, 10 μM compound in food): 34.6 (±0.8) Days | longer lifespan of treated mutants than untreated control animals ([3]; steppke mutants fed 10 μM compound versus untreated w^1118): 37.3% | increase in the average lifespan of mutants by feeding ([3]; steppke mutants, 10 μM compound in food, versus untreated mutants, P<0.001): 15.3%

Source: patent US20100048594A1, “USE OF CYTOHESIN INHIBITORS FOR CHEMICALLY INDUCING LONGEVITY” (RHEINISCHE FRIEDRICH-WILHELMS UNIVERSITAT, priority 2006, published 2010)
